Marks after values point to notes of the source that are not given here.
Assays:
[1] = test system: Salmonella typhimurium TA100; assay: AMES test, mutagenic evaluation in Salmonella typhimurium TA100 strain with/without metabolic activation (S9); type: cell-based
Experimental: The procedure was firstly developed by (MARON, D. M. and AMES, B. N. Mut. Res. v. 113, pp. 173-215, 1983)
For this assay, Salmonella typhimurium TA100 and TA102 strains from the mutagenicity laboratory of the “Faculdade de Ciências Farmacêuticas—UNESP Araraquara” were used. Such strains have the following characteristics: (AMES, 1983)
The positive controls are mutagenic compounds specific for each strain and test condition, with 25 μL/plate of sodium azide (1.25 μg/plate) and 100 μL of mitomycin (0.5 μg/plate) being the controls for TA100 and TA102, respectively, in the absence of metabolic activation. For assays with metabolic activation, the positive control for TA100 is 50 μL 2-antramine (1.25 μg/plate) and for TA102 it is 50 μL 2-aminofluorene (1.25 μg/plate).
The preincubation method was used.
In laminar flow, Salmonella typhimurium (TA100 and TA 102) strains were inoculated individually with a platinum loop, in the respective nutrient broths and maintained at 37° C., under constant stirring (160 rpm) during 14 hours, in order to achieve a density of 1 to 2×10^9 bacteria/mL.
Different concentrations of the compounds were added into 100 μL of 0.2M phosphate buffer pH 7.4 (or 500 μL of the mixture S9 in metabolic activation assays) and incubated for 20-30 minutes at 37° C. Solutions containing the compounds had DMSO as the solvent. Thereafter, 2 mL of top agar supplemented with traces of histidine and biotin was added, homogenized and plated in glycosylated minimum medium. After solidification of the top agar, the plates were incubated for 48 hours at a 37° C. Then, the counting of the number of revertant colonies per plate was performed. All tested concentrations, positive and negative controls were run in triplicate.
After 48 hours, the revertant colonies were counted manually, and the protoCOL Colony Counter Version 3.15.630 (1998-2001) SYNBIOSIS LTD system was used for the positive control.
The final data obtained from the assay was analyzed using the statistical software Salanal (Salmonella Assay Analysis) version 1.0 from the Research Triangle Institute, RTP, North Carolina, USA. Such software allows the dose-response effect to be evaluated by means of analysis of variance (ANOVA-test F) computations between the measurement of the number of revertants at the different tested concentrations (doses) and the negative control, followed by a linear regression. The software model chosen for analyzing the data was Bernstein's (BERNSTEIN, L. et al. Mutat. Res. v. 97, p. 267-281, 1982). The slope of the straight line from the linear portion of the dose-response curve is also provided by this software and corresponds to the number of revertants induced per measurement unit of the analyzed sample.
From the results, the mutagenicity ratio (MR) was computed for each analyzed dose from each compound. MR is given by the following equation:
MR=average number of revertants per test plate (spontaneous+induced revertants) […] average number of revertants per plate of the negative control (spontaneous revertants)
The spontaneous growing means that the number of revertants which developed on the plate, regardless of being induced or not, wherein values higher or equal to 2 are considered as a positive response (VALENT, G. V. et al. Env. Toxicol. Water Quality. v. 8, p. 371-381, 1993).
The mutagenicity test with metabolic activation system was performed with a microsomal fraction S9 (S9 mix) prepared from a liver homogenizate from Sprague Dawley rats, previously treated with Aroclor 1254, acquired in the freeze-dried form.
The procedure for this assay is the same, however, instead of the buffer, 500 μL of the S9 mixture should be added.
The S9 mixture has a viability of 4 hours from preparation when put on ice. The plates are then incubated for 48 hours at 37° C. After the required time has elapsed, the counting of the revertant colonies was carried out. All tested concentrations, positive and negative controls were run in triplicate.

[2] = test system: leukocyte infiltration, peritonitis induced by thioglycolate; assay: Peritonitis assay induced by 3% thioglycolate; type: in vivo; conditions: 300 μMol/Kg orally, mouse, 3% thioglycolate i.p., 4 h
Experimental: In a second assay, the number of total leukocytes (10^6/mL) was evaluated in order to evaluate the ability to inhibit their infiltration in the inflammatory process.
The mice were treated with the substances being analyzed or carrier and after 1 h of oral administration, they were simultaneously subjected to the peritonitis assay, by administering intraperitoneally 1 ml of a 3% thioglycolate solution. 4 h after the administration of thioglycolate, the peritoneal cavity was washed with 3 ml of a HANKS solution (Balanced salt solution, free of Ca^2+ and Mg^2+). Next, the peritoneal wash was analyzed and the total counting of white blood cells was made in a Newbauer's chamber under an optical microscope with a 40× objective.

[3] = test system: abdominal writhing induced by acetic acid; assay: Abdominal writhing assay induced by acetic acid; type: in vivo; conditions: oral, mice, acetic acid 0.1N i.p. after 1 hour, writhings counted during 20 minutes
Experimental: In order to evaluate the peripheral analgesic activity of the compounds, an abdominal writhing assay induced by acetic acid (Table 6) was carried out. In this assay, we could infer that compound ID has an important analgesic activity, inhibiting abdominal writhing by 66%. […] The analgesic activity may be related to the ability of these compounds to inhibit the cytokine TNFα, since it is known that this would be one of the mechanisms that explain the analgesia of molecules such as thalidomide.
The antinociceptive profile was evaluated through the abdominal writhing assay induced by acetic acid in mice. In this assay, Swiss mice from both genders were used, weighing from 21 to 28 grams, fasted for a time period of about 8 hours. The test substance was administered orally and had, as a carrier, 5% gum arabic. After 1 hour, the administration of acetic acid 0.1N (0.1 mL/10 g weight) was performed in the peritoneal cavity of the animals. Ten minutes after the injection of acetic acid, writhings were counted during 20 minutes.

O=C1c2ccccc2C(=O)N1CCO[N+](=O)[O-] [IB, 2-(1,3-dioxo-1,3-dihydro-2H-isoindol-2-yl)ethyl nitrate]
mutagenicity ratio (MR) ([1]; TA 100, +S9, 0.01 μmol/plate): 3.4
number of revertants per plate ([1]; TA 100, +S9, 0.01 μmol/plate): 354 ± 6.9 revertants/plate
mutagenicity ratio (MR) ([1]; TA 100, +S9, 0.021 μmol/plate): 3.22
number of revertants per plate ([1]; TA 100, +S9, 0.021 μmol/plate): 335 ± 10.8 revertants/plate
mutagenicity ratio (MR) ([1]; TA 100, +S9, 0.042 μmol/plate): 3.8
number of revertants per plate ([1]; TA 100, +S9, 0.042 μmol/plate): 397 ± 25.9 revertants/plate
mutagenicity ratio (MR) ([1]; TA 100, +S9, 0.085 μmol/plate): 3.8
number of revertants per plate ([1]; TA 100, +S9, 0.085 μmol/plate): 395 ± 40.2 revertants/plate
mutagenicity ratio (MR) ([1]; TA 100, +S9, 0.17 μmol/plate): 2.5
number of revertants per plate ([1]; TA 100, +S9, 0.17 μmol/plate): 261 ± 11 revertants/plate
mutagenicity ratio (MR) ([1]; TA 100, −S9, 0.01 μmol/plate): 1.49
number of revertants per plate ([1]; TA 100, −S9, 0.01 μmol/plate): 171 ± 48.9 revertants/plate
mutagenicity ratio (MR) ([1]; TA 100, −S9, 0.021 μmol/plate): 1.74
number of revertants per plate ([1]; TA 100, −S9, 0.021 μmol/plate): 200 ± 23.3 revertants/plate
mutagenicity ratio (MR) ([1]; TA 100, −S9, 0.042 μmol/plate): 1.94
number of revertants per plate ([1]; TA 100, −S9, 0.042 μmol/plate): 223 ± 45.04 revertants/plate
mutagenicity ratio (MR) ([1]; TA 100, −S9, 0.085 μmol/plate): 1.8
number of revertants per plate ([1]; TA 100, −S9, 0.085 μmol/plate): 206 ± 30.2 revertants/plate
mutagenicity ratio (MR) ([1]; TA 100, −S9, 0.17 μmol/plate): 1.43
number of revertants per plate ([1]; TA 100, −S9, 0.17 μmol/plate): 165 ± 11.1 revertants/plate
Cell Number avg (×106), total leukocytes [2]: 2.73 ×106
Inhibition % (leukocyte infiltrate) [2]: 51.25* %
Average (abdominal writhings) [3]: 39.2
Inhibition % (abdominal writhing) [3]: 23.22%

Reference: US8314255B2, “Use of phthalimide and/or sulphonamide derivatives in the treatment of diseases which require reducing the TNF- α levels and an exogenous source of nitric oxide, phthalimide derivatives, sulphonamide derivatives, and a method for obtaining a sulphonamide derivative” (priority 2007, dated 2012)
